{"source": "patent EP2613758B1", "about": "“MACROEMULSIONS WITH IMPROVED DEODORANT EFFICACY” (Beiersdorf AG, priority 2010, dated 2012)", "key": {"Bakterien": {"system": "Bakterien", "assay": "Investigations of efficacy of amphiphilic actives from micro- and macroemulsions (method not specified)"}, "S. epidermidis": {"system": "S. epidermidis", "assay": "Suspension test (germ count reduction by the formulation)", "type": "cell-based", "details": "active alone; Ethylhexylglycerin 0,5% in Makroemulsion ohne Octenidine (Abbildung 4)", "procedure": "Die Wirksamkeit wurde mittels der Freisetzung von Octenidine aus Makro- bzw. Mikroemulsionen untersucht, wie es beispielhaft in Abbildung 3 und 4 dargestellt ist. Ebenso sind Untersuchungen durchgeführt worden für W/O- Aerosol-Zubereitungen einmal mit und einmal ohne Octenidine, die zu gleichen Ergebnissen geführt haben. In den dargestellten Suspensionstests wurden zu 500µL einer Bakteriensuspension (S. epidermidis) 250 mg der zu testenden Formulierung gegeben (bei der Positivkontrolle nur 250 mg des Bakterienmediums). Diese Mischungen werden mit Medium auf 1000µL aufgefüllt. Die Suspension enthält dann ca. 1*10^6 KBE/mL (KBE: koloniebildende Einheiten). Die Ansätze werden bei 37°C unter Rotation für drei Stunden inkubiert. Nach 0, 20, 60 und 180 min werden Proben genommen, verdünnt und auf Agarplatten ausplattiert. Diese werden 24h bei 37°C zur Anzucht der verbleibenden Keime inkubiert. Gute und in vivo wirksame Deodorant-Formulierungen reduzieren die Keimzahl bereits nach 20 Minuten auf Nachweisgrenze von 100 KBE/mL. Formulierungen mit schlechterer Keimzahl-Reduktion zeigen in vivo keine ausreichende Deoleistung."}}}
{"smiles": "CC(C)(C)CC(C)(C)c1ccc(OCCOCC[N+](C)(C)Cc2ccccc2)cc1", "note": "[Benzethonium chloride]", "values": [{"measurement": "Wirksamkeit", "setting": "Bakterien; aus Makroemulsionen", "value": "zeigen eine Wirksamkeit"}, {"measurement": "Wirksamkeit", "setting": "Bakterien; in einer Mikroemulsion", "value": "unwirksam"}]}
{"smiles": "CCCCC(CC)COCC(O)CO", "note": "(centres unmarked) [Ethylhexylglycerin, 1-(2-Ethylhexyl)glycerinether]", "values": [{"measurement": "Wirksamkeit im Suspensionstest (Keimzahl-Reduktion)", "setting": "S. epidermidis", "value": "nicht wirksam"}]}
{"smiles": "CCCCCCCCN=c1ccn(CCCCCCCCCCn2ccc(=NCCCCCCCC)cc2)cc1.Cl.Cl", "note": "[Octenidine HCl, N, N'-(1,10-decanediyldi-1[4H]-pyridinyl-4-ylidene)-bis-(octanamine) dihydrochloride]", "values": [{"measurement": "Wirksamkeit im Suspensionstest (Keimzahl-Reduktion)", "setting": "S. epidermidis", "value": "gewünschte Wirksamkeit"}, {"measurement": "Wirksamkeit", "setting": "Bakterien; aus Makroemulsionen", "value": "zeigen eine Wirksamkeit"}]}
